Data set [1] is described as follows: In vitro microsomal metabolic stability, CD-1 mouse liver microsomes. Format: in vitro ADME. In a few lines: (§1)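 Compounds at 1 μM incubated at 37° C with pooled CD-1 mouse or human liver microsomes (0.5 mg/mL protein) plus NADPH regenerating system in 50 mM potassium phosphate, pH 7.2, 3.3 mM MgCl2; sampled at 0–60 min, 60-min no-NADPH control. Parent loss by LC/MS/MS analyte/IS peak-area ratio, n=1.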
(Microsomes from liver hold many membrane-bound enzymes, among them those of drug oxidation.)

A short description of data set [2]: In vitro microsomal metabolic stability, human liver microsomes. The data set is classed as in vitro ADME. Put shortly:
as §1

The subject of data set [3] is S6K1 (Thr389) phosphorylation (mTORC1 activity) in wild-type (WT) 293T cells. Put plainly: Inhibition of S6K1 (Thr389) phosphorylation in wild-type 293T cells (ELISA). The data set is classed as cell-based, human. In a few lines:
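WT 293T cells in DMEM + 10% FBS, grown 24 h to ~80% confluence, then treated 2 h at 37 °C in duplicate with compounds over an 8–11-point range from 0.001 pM to 10 μM. DMSO vehicle served as negative control. Phospho-S6K1 (Thr389) measured by ELISA.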

For data set [4], the system named is S6K1 (Thr389) phosphorylation (mTORC1 activity) in FKBP12 knock-out 293T cells. In words: Inhibition of S6K1 (Thr389) phosphorylation in FKBP12 knock-out 293T cells (ELISA). The data set is classed as cell-based, human. Put shortly: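 CRISPR-generated FKBP12 knock-out HEK293T cells, alongside wild-type, were treated in duplicate for 2 hours at 37 °C with an 8–11-point dose range (0.001 pM–10 μM). Phospho-S6K1 Thr389 quantified by ELISA as an mTORC1 activity read-out, with DMSO as negative control.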
On the technique in general: An ELISA detects its analyte on a solid surface through an enzyme-linked reagent.

Data set [5] in a line: Pharmacokinetic studies in male CD-1 mice (plasma, IV and PO). Format: in vivo, mouse. The following applies: male. On the procedure:
Animal experiments were carried out at Wuxi AppTec. Male 6-8 weeks old CDI mice were obtained from Hilltop Labs. Following arrival at Wuxi AppTec, mice were housed in animal rooms with environmental control (temperature: 20 to 26° C.; lighting: 12 hour light/dark cycle). Mice were fed with certified pellet diet (Certified Rodent Diet #5002 by LabDiet). Water was provided to the animals ad libitum. Mice were acclimated to the facility for at least 3 days prior to starting experiments.
Appropriate amount of test article formulated in 5% ethanol, 5% Tween-80 and 5% PEG-400, 85% water. Formulation was prepared on the day of dosing and dosed within 2 hours following preparation of formulations. Dose accuracy was determined by LC-MS/MS.
Dose formulation(s) were administered following facility SOPs. Dose volumes were determined individually prior to dosing based on animals' body weights.
About 40 μL of blood samples were collected via peripheral veins (e.g. saphenous veins) at each pre-defined time point. Blood samples were collected into tubes containing K2EDTA as anti-coagulant and kept on ice until centrifugation.
Blood samples were centrifuged at 4° C., 3000 g for 5 min within half an hour of collection. Plasma was transferred into polypropylene tubes or 96-well plates, promptly frozen on dry ice and stored at −70±10° C. until analysis by LC-MS/MS.
Test compound concentration in mouse plasma was determined with LC-MS/MS method using a calibration curve with at least 6 non-zero calibration standards.
The pharmacokinetics (PK) of the test article was analyzed using Phoenix WinNonlin software (version 8.3) and non-compartmental analysis model. Derived PK parameters include, but not limited to, C0, CLp, Vdss, Cmax, Tmax, T1/2, AUC(0-t), AUC(0-inf), MRT(0-t), MRT(0-inf) and % F (bioavailability).

Setting [6] is: CD-1, mouse, mouse liver microsomes, pH 7.2.

The structures appear in SMILES notation.

For `CO[C@@H]1C[C@H](C[C@@H](C)[C@@H]2CC[C@H](C)/C=C(\C)[C@@H](O)[C@@H](OC)C(=O)[C@H](C)C[C@H](C)/C=C/C=C/C=C(\C)C(Nc3cnon3)C[C@@H]3CC[C@@H](C)[C@@](O)(O3)C(=O)C(=O)N3CCCCC3C(=O)O2)CC[C@H]1O` (stereo partly drawn) [Compound 45, (3S,6S,7E,9R,10R,12R,14S,15E,17E,19E,23S,26R,27R,34aS)-21-((1,2,5-oxadiazol-3-yl)amino)-9,27-dihydroxy-3-((R)-1-((1S,3R,4R)-4-hydroxy-3-methoxycyclohexyl)propan-2-yl)-10-methoxy-6,8,12,14,20,26-hexamethyl-5,6,9,10,12,13,14,21,22,23,24,25,26,27,32,33,34,34a-octadecahydro-3H-23,27-epoxypyrido[2,1-c][1]oxa[4]azacyclohentriacontine-1,11,28,29(4H,31H)-tetraone], the intrinsic clearance (CLint scaled) (usually a measure of how fast metabolising enzymes remove a compound, apart from limits set by blood flow) at 1 µM in data set [1] (setting [6]) worked out at 64.8 mL/min/kg. The intrinsic clearance (microsomal CLint) – broadly, the rate of metabolic loss divided by the concentration – at 1 µM came out at 16.4 µL/min/mg in data set [1] (setting [6]) and 194 µL/min/mg in data set [2] (human, human liver microsomes, pH 7.2). The half-life at 1 µM in data set [1] (CD-1, pH 7.2, Mouse liver microsomes, 1 μM, 0.5 mg/ml protein, NADPH) was 1.41 h; in data set [2] (pH 7.2, Human liver microsomes, 1 μM, 0.5 mg/ml protein, NADPH) it was 7.13 min. Besides, the “Remaining (T = 60 min)” value worked out at 64.30% in data set [1] (Mouse liver microsomes, with NADPH, 60 min) and 0.00% in data set [2] (Human liver microsomes, with NADPH, 60 min). Besides, the “Remaining (T = NCF60 min)” value is on record as 81.40% in data set [1] (Mouse liver microsomes, without NADPH regenerating system, 60 min) and 71.30% in data set [2] (Human liver microsomes, without NADPH regenerating system, 60 min). Further, 8.4 nM corresponded to half-maximal inhibition in data set [3] (Homo sapiens, HEK-293T, 2 h, wild-type 293T cells, 2 hours treatment) (IC50). Further, the “fold lower potency compared with RAD001 (by IC50)” value in data set [3] (wild-type cells) is given as ~18 fold. Further, the “extent of inhibition of S6K1 (Thr389) phosphorylation” value in data set [3] (wild-type cells, with increasing concentrations) was “completely inhibit”. In data set [4] (FKBP12 knock-out cells), the “inhibition of S6K1 (Thr389) phosphorylation in the absence of FKBP12 (in words)” value is recorded as “much less inhibition of S6K1 phosphorylation”. Further, the “fold less potent compared with RAD001” value in data set [4] (FKBP12 knock-out cells, at similar level of inhibition) was ~100 fold. For the same compound, the inhibition (as a rule, the percentage by which the read-out fell short of the control) at 10 µM in data set [4] (Homo sapiens, HEK-293T, FKBP12 knock-out cells, 10 μM (highest tested concentration)) was ~25%. The “selectivity for FKBP12 compared with RAD001 (in words)” value in data set [4] (wild-type versus FKBP12 knock-out cells) was “relatively more selective for FKBP12 compared with RAD001”. Besides, the clearance in data set [5] (CD-1, plasma, mouse, IV 2 mg/kg, read-out: CI(mL/min/kg), compounds clearance following IV administration) is 1.13 mL/min/kg. Moreover, the Vd in data set [5] (CD-1, plasma, mouse, IV 2 mg/kg, read-out: Vdss (L/kg), volume of distribution following IV administration) was found to be 0.475 L/kg. Moreover, the bioavailability (usually dose-corrected exposure relative to a reference, in per cent) in data set [5] (CD-1, plasma, mouse, PO 20 mg/kg vs IV 2 mg/kg) amounted to 17%. For the same compound, the half-life in data set [5] (CD-1, mouse plasma, IV 2 mg/kg, read-out: IV T1/2 (converted)) was 5.63 h. Further, in data set [5] (CD-1, mouse plasma, PO 20 mg/kg), the concentration peaked (Cmax) at 9180 ng/mL. Further, the concentration at 8 h in data set [5] (CD-1, mouse plasma, PO 20 mg/kg, read-out: Compound concentration at 8-hour, PO administration) came to 1520 ng/mL. Further, the concentration at 24 h in data set [5] (CD-1, mouse plasma, PO 20 mg/kg, read-out: Compound concentration at 24-hour, PO administration) turned out to be 239 ng/mL.

The values are drawn from patent US20240360153A1 (Regeneron Pharmaceuticals, Inc., priority 2023, published 2024).
